{"source": "patent US20020094316A1", "about": "“Polypodal chelants for metallopharmaceuticals” (priority 2001, published 2002)", "origin": "cited, not measured here", "key": {"[1]": {"settings": "compared with MECAM"}}}
{"smiles": "O=C(N[C@H]1COC(=O)[C@@H](NC(=O)c2cccc(O)c2O)COC(=O)[C@@H](NC(=O)c2cccc(O)c2O)COC1=O)c1cccc(O)c1O", "note": "[enterobactin]", "values": [{"measurement": "stability of Fe^3+ complex relative to MECAM", "setting": "[1]", "value": "much more stable"}]}
{"smiles": "O=C([O-])CN(CCN(CC(=O)[O-])CC(=O)[O-])CCN(CC(=O)[O-])CC(=O)[O-].[Gd+3]", "note": "[Gd(DTPA)^2−]", "values": [{"measurement": "Kobs (decomposition)", "setting": "acidic conditions", "value": "1.2×10^−3 so^−1"}]}
{"smiles": "O=C([O-])CN1CCN(CC(=O)[O-])CCN(CC(=O)[O-])CCN(CC(=O)[O-])CC1.[Gd+3]", "note": "[Gd(DOTA)^−]", "values": [{"measurement": "half-life", "setting": "in 0.1 M HCl", "value": 60.2, "unit": "h"}]}
